Data: ChEMBL document CHEMBL1201862, “PubChem BioAssay data set” (2004)
Calls of active or inactive are those of the source.

Key:
[1] = biological target: T1, Low molecular weight phosphotyrosine protein phosphatase (Homo sapiens, UniProt P24666); type: functional; conditions: read-out: IC50_Mean
T1 sequence (P24666 whole entry): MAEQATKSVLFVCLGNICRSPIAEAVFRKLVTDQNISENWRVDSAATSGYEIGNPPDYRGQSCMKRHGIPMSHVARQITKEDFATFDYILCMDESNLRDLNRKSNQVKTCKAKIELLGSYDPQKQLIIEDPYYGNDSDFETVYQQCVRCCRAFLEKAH

[2] = biological target: T1, Low molecular weight phosphotyrosine protein phosphatase; type: functional; conditions: read-out: IC50_Mean; remark: listed apart in the source
[3] = biological target: T2, Carboxy-terminal domain RNA polymerase II polypeptide A small phosphatase 1 (Homo sapiens, UniProt Q9GZU7); assay: CTDSP1 inhibitors, concentration-response, biochemical, absorbance readout, ultra-high-throughput screen actives (AID 540297); type: functional
T2 sequence (Q9GZU7 whole entry): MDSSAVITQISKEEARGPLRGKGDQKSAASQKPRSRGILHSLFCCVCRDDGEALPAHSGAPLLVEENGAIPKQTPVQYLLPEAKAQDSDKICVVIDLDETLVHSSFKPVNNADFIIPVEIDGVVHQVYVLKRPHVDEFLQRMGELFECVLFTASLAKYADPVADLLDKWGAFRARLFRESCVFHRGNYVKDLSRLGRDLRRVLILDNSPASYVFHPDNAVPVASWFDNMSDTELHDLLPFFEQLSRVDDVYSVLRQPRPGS

Hexokinase HKDC1 = biological target: T3, Hexokinase HKDC1 (Homo sapiens, UniProt Q2TB90); assay: inhibition of HKDC1 glucose phosphorylation – biochemical, W721R variant, dose response (AID 504729); type: functional
T3 sequence (Q2TB90 whole entry): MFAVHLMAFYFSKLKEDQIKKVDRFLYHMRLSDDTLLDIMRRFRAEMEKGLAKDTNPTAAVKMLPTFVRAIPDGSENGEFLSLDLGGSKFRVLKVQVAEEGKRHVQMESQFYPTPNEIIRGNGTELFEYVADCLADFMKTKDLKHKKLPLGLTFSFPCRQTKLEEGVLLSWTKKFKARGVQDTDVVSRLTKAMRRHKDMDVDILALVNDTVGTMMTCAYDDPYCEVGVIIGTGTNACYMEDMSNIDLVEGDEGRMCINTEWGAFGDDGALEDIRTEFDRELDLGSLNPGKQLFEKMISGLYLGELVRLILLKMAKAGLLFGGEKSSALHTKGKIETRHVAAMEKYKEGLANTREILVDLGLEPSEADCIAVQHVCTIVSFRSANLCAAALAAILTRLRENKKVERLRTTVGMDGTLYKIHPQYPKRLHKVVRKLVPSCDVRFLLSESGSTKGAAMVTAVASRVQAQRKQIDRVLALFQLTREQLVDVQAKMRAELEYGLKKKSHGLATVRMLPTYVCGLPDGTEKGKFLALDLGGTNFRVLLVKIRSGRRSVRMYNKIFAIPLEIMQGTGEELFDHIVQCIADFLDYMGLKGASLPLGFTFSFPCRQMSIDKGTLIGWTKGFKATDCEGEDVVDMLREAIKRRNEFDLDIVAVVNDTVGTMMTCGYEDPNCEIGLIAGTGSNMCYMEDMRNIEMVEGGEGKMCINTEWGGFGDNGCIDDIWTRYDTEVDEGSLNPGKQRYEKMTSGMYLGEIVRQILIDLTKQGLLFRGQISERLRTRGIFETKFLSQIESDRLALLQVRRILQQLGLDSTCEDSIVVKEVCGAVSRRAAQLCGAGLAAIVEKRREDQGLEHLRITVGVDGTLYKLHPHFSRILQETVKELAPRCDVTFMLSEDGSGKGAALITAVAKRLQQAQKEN

[4] = biological target: T4, Mitochondrial peptide methionine sulfoxide reductase (Bos taurus, UniProt P54149); type: functional;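 also: absorbance read-out, biochemical high-throughput dose-response screen for MsrA inhibitors, confirmatory; recombinant bovine MsrA coupled to E. coli TrxB with NADPH and selenocystamine; potency is for inhibitors of MsrA activity on DMSO substrate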
T4 sequence (P54149 whole entry): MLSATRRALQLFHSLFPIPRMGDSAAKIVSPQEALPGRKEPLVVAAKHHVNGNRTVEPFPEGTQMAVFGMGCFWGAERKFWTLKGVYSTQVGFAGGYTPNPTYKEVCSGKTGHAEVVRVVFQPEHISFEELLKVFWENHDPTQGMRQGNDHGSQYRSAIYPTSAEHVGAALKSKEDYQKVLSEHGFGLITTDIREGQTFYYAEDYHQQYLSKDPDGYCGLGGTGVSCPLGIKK

[5] = viability of HCT116 lacking mutant beta-catenin – cell-based, human colon tumor, dose response (AID 1045); type: functional;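 also: HCT116 colon tumor cells with beta catenin knocked out; cells exposed to compound for 60 hours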
[6] = DRD fibroblast viability loss – cell-based, non-viral oncogenic, luminescence, dose response (AID 1934); type: functional; conditions: Homo sapiens
BJ [7] = assay: cells; type: functional, cell-based; conditions: Homo sapiens
BJ [8] = assay: BJ-TERT fibroblast viability loss – cell-based, RAS-independent, luminescence, dose response (AID 1933); type: functional; conditions: Homo sapiens
[9] = biological target: T5, Replicative DNA helicase DnaB (Mycobacterium tuberculosis, UniProt P9WMR3); assay: DnaB intein splicing inhibitors, dose response, biochemical, cell-free fluorescence (AID 449749); type: functional
T5 sequence (P9WMR3 whole entry): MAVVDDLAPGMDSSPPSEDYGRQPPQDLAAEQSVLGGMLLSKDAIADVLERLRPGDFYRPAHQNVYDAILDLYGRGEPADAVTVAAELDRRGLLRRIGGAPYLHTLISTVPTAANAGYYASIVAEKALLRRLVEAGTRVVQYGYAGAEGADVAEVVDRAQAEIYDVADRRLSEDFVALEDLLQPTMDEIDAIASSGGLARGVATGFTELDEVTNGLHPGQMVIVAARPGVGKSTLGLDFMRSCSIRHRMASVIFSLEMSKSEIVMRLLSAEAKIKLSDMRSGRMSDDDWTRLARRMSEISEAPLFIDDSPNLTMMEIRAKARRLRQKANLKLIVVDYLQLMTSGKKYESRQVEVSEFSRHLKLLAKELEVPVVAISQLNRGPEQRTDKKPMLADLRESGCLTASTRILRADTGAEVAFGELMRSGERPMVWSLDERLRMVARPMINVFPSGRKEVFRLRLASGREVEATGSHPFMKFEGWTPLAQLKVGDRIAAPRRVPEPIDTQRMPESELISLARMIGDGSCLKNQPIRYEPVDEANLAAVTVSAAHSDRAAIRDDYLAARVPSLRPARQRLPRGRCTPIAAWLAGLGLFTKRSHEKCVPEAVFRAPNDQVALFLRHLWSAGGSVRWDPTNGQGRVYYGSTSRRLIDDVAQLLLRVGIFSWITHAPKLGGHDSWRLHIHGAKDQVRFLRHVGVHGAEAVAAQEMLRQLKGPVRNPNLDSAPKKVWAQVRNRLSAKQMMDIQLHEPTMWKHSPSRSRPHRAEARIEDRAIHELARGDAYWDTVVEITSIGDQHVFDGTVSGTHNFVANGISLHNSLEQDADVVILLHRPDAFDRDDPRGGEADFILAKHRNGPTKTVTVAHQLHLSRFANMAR

[10] = viability of PTEN-deleted HCT116 cells – cell-based, HCT116 PTEN knockout, dose response (AID 1047); type: functional;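 also: HCT116 colon tumor cells with PTEN knocked out; cells exposed to compound for 60 hours before readout; potency for loss of cell viability measured by luminescence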
Protein RecA = biological target: T6, Protein RecA (Mycobacterium tuberculosis, UniProt P9WHJ3); assay: Fluorescence Cell-Free Homogeneous Dose Retest to Identify Inhibitors of RecA-Intein Splicing Activity. [Related pubchem assays (depositor defined):AID2097, AID2223, AID489010, AID492950]; type: functional
T6 sequence (P9WHJ3 whole entry): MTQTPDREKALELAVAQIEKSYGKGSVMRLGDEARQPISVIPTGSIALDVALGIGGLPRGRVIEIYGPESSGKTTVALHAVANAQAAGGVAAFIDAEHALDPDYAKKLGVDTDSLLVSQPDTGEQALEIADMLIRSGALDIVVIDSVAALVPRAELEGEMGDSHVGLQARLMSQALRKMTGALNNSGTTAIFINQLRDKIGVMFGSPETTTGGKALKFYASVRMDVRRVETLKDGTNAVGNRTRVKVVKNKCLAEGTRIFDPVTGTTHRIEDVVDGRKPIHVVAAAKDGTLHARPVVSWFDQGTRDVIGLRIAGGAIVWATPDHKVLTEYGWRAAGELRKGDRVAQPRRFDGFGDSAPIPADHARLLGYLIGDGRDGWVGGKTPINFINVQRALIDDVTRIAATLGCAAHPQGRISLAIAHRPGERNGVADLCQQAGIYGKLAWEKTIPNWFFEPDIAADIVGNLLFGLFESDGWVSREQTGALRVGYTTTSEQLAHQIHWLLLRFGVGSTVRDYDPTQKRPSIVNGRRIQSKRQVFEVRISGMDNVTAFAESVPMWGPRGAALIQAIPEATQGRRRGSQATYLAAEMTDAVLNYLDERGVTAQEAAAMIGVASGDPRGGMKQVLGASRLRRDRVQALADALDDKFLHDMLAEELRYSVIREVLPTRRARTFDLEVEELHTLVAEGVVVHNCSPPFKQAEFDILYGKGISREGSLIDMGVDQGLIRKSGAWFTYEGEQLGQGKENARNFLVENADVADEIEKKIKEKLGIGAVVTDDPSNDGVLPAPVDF

BJ [11] = assay: BJ-TERT-LT-ST fibroblast viability loss – cell-based, RAS-independent, luminescence, dose response (AID 1935); type: functional; conditions: Homo sapiens;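 also: BJ fibroblasts immortalized with TERT plus LT and ST oncogenes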
[12] = biological target: Potassium voltage-gated channel subfamily KQT member 2 (Rattus norvegicus, UniProt O88943); assay: blockers of KCNQ2 channel current – cell-based, automated electrophysiology, set II, rat KCNQ2, dose response (AID 588637); type: functional
Chain of Potassium voltage-gated channel subfamily KQT member 2 (O88943 whole entry): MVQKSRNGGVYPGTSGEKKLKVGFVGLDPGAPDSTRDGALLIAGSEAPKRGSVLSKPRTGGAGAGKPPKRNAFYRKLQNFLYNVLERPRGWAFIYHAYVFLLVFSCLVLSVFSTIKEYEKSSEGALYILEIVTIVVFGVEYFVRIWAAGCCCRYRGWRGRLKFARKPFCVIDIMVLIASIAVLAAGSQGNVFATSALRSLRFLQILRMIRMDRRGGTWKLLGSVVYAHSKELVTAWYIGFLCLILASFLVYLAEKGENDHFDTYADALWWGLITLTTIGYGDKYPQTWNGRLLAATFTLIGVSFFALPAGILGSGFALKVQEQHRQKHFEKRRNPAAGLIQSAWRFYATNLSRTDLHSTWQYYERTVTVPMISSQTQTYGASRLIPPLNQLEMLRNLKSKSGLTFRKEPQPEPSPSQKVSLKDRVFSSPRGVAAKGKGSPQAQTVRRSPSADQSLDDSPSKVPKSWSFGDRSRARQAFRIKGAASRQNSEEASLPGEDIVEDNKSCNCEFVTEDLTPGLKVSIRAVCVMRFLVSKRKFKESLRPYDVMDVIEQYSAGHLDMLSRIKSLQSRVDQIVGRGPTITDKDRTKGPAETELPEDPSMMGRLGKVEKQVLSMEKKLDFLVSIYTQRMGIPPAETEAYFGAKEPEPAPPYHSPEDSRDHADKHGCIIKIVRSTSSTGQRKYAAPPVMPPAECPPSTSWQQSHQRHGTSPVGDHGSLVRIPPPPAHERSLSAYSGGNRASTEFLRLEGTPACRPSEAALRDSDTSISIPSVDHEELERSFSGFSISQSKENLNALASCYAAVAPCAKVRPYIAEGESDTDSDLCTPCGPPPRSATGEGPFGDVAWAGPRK

[13] = biological target: Voltage-dependent T-type calcium channel subunit alpha-1H (Homo sapiens, UniProt O95180); type: functional;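 also: channel activity triggered by adding a high calcium stimulation buffer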
Chain of Voltage-dependent T-type calcium channel subunit alpha-1H (O95180 whole entry): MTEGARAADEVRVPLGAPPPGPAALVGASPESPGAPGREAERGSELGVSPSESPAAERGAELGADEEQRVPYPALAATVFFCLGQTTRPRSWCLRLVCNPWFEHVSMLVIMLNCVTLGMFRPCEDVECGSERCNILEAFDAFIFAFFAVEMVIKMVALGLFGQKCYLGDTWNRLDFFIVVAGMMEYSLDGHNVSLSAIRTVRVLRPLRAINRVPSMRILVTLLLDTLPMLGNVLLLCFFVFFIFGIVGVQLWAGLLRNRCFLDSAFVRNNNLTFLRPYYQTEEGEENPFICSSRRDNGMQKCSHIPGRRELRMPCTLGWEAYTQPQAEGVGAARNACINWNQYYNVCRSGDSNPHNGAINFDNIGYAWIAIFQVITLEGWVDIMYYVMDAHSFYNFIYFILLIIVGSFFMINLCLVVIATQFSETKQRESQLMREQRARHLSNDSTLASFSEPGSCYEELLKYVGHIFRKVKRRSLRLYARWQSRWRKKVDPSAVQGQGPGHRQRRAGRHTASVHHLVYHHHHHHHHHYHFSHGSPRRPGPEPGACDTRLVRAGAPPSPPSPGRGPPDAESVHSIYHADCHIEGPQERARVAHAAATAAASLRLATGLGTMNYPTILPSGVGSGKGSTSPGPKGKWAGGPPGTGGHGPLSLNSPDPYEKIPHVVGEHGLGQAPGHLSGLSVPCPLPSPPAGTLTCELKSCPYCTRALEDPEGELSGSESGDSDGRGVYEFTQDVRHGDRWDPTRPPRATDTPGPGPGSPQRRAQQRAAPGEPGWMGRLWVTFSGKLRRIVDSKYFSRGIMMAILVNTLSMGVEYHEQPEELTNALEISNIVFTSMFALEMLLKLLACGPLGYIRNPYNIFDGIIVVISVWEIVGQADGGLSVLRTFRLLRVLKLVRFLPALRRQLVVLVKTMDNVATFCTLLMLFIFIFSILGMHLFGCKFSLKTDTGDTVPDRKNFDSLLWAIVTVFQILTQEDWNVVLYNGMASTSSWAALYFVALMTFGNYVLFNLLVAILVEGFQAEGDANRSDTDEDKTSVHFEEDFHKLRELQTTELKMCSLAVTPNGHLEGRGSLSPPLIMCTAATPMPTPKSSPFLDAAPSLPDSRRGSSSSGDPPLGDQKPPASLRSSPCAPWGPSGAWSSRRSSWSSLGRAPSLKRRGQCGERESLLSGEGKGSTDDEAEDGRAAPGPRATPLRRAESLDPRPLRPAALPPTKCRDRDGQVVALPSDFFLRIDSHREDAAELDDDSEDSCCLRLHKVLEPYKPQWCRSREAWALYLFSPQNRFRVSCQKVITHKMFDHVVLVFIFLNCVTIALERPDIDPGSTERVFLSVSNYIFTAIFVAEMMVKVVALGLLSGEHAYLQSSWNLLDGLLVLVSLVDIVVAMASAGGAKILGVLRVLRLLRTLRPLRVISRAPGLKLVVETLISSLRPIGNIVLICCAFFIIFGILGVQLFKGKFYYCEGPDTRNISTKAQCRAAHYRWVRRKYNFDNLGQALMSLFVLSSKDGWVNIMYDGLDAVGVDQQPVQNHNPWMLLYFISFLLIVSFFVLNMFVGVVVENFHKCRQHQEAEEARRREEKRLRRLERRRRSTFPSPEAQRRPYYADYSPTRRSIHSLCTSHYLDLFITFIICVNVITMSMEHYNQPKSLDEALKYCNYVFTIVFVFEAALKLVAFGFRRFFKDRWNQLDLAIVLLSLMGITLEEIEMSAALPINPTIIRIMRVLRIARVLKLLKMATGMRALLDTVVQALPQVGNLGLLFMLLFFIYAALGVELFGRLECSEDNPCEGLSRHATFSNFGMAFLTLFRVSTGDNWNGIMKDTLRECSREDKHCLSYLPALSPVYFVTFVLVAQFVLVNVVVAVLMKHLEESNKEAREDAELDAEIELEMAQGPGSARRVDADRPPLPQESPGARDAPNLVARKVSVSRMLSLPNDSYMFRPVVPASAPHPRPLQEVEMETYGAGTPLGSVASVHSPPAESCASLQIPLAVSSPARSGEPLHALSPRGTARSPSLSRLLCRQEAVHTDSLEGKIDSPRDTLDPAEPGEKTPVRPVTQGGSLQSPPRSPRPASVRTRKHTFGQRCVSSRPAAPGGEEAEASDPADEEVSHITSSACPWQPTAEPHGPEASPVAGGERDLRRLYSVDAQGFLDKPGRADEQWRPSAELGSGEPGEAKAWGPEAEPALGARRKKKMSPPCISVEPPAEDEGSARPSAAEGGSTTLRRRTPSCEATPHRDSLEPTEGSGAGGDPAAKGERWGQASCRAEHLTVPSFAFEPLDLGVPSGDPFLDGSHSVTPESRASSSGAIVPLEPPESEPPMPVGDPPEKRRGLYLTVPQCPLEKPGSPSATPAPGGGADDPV

For Cc1cc2oc(C(=O)NCCc3ccc(S(N)(=O)=O)cc3)c(C)c2cc1C, the IC50 [1] was 29.9 µM (inactive), the IC50 [2] was 48.1 µM (inactive) and the IC50 [3] was > 80 µM (inactive).
With O=C(C1=C(c2ccccc2)C(=O)c2ccccc2C1=O)c1ccccc1 the IC50 (Hexokinase HKDC1) was 10.1 µM (active), the IC50 [4] was 13.8 µM (inactive) and the EC50 [5] was 2.72 µM (active). The EC50 [6] was > 150 µM (not active), the EC50 (BJ [7]) was 7.17 µM (active) and the EC50 (BJ [8]) was 5.95 µM (inconclusive). The AC50 [9] was 8.2 µM (active), the EC50 [10] was 2.73 µM (active) and the EC50 (Protein RecA) was 0.862 µM (active). The EC50 (BJ [11]) was 8.65 µM (inconclusive).
For CCOc1ccc(-c2nc(CSCC(=O)NC3CCCc4ccccc43)c(C)o2)cc1 (stereo not given), the IC50 [12] was 1.51 µM (active) and the EC50 [13] was 3.26 µM (active).
